The target of one assay is T1, APOL1 G2 (Homo sapiens, UniProt O14791, DEL388-389).
T1 construct: expressed in transfected cells; host or cells: HEK293 T-REx clonal line stably expressing GCaMP6f (HEK T-REx/GCaMP6f/APOL1 G2 K6.3), doxycycline induced
T1 sequence (O14791 with tags, fused parts or gaps DEL388-389): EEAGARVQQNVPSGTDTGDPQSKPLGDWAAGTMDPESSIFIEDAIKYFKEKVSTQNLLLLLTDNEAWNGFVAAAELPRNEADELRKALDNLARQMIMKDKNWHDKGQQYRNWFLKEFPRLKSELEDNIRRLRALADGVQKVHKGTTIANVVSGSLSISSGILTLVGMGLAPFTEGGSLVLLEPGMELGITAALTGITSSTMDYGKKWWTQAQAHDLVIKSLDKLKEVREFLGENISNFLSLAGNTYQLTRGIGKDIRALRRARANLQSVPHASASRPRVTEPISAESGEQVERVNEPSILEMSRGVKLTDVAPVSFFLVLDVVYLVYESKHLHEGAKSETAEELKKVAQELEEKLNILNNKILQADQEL
Kind of assay: APOL1-mediated calcium transport (calcium influx) assay, HEK T-REx/GCaMP6f/APOL1 G2 K6.3 cells, FLIPR TETRA. The following applies: prevention of calcium influx; geometric mean of at least 2 assay runs; † = average of a technical replicate from a single assay run. The assay is classed as cell-based. An outline of the steps:
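A HEK293 T-REx clone stably expressing GCaMP6f had APOL1 G2 induced with doxycycline (20 ng/mL solution added) for 6 h. Cells were then washed into Ca2+-free Tyrode's buffer (pH 7.4) and preincubated with compounds (duplicate 8-point) for 10 min at room temperature. Ca2+ injection to 5 mM final produced FLIPR GCaMP fluorescence, giving AC50 for influx inhibition (geometric mean, ≥2 runs).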

The subject of assay [1] is HEK293 clonal cell line overexpressing APOL1 G1. Kind of assay: APOL1 G1 HEK293 cell rescue assay (Example B3). It counts as cell-based. The following applies: geometric mean of at least 2 runs, † = single run, ¥ = concentration at 50% rescue estimated (no sigmoidal curve). An outline of the steps:
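HEK293 clonal line overexpressing APOL1 G1; EC50 is half-maximal reversal of APOL1-induced cell death. Values are the geometric mean of ≥2 runs on separate days, each run the average of duplicate wells. Where no sigmoidal curve could be fitted, the concentration giving 50% rescue was estimated.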

[2] abbreviates: Homo sapiens, HEK293, HEK293 clonal line overexpressing APOL1 G1.
Setting [3] is: HEK293 clonal line overexpressing APOL1 G1.

This is an account of results in patent US12344610B2, “APOL1 inhibitors and methods of use” (Maze Therapeutics, Inc., priority 2022, dated 2025).

Structures are written as SMILES. A value given as a limit tells only on which side of the number the result lay.

The AC50 is the concentration giving half of the maximal activity seen. As a reminder, the EC50 is the concentration at which the effect is half-maximal. For `O=C1NCC2c3ccc(OCCN4CCC5(CC4)C(=O)Nc4ccc(Cl)cc45)cc3CCN12` (single isomer, unassigned) [Compound 116, (S) or (R)-5-chloro-1′-[2-({3-oxo-1H,2H,3H,5H,6H,10bH-imidazo[4,3-a]isoquinolin-8-yl}oxy)ethyl]-1,2-dihydrospiro[indole-3,4′-piperidin]-2-one], on APOL1 G2, the AC50 is 466 nM. Moreover, the EC50 in assay [1] (setting [2]) is 234 nM.

Regarding `CS(=O)(=O)C1(c2ccc(OCCN3CCC4(CC3)C(=O)Nc3ccc(C#N)cc34)cc2C(F)(F)F)COC1` [Compound 166, 1′-{2-[4-(3-methanesulfonyloxetan-3-yl)-3-(trifluoromethyl)phenoxy]ethyl}-2-oxo-1,2-dihydrospiro[indole-3,4′-piperidine]-5-carbonitrile], the AC50 on APOL1 G2 was determined as 618 nM. For the same molecule, in assay [1] (setting [2]), the EC50 is 163 nM.

Take `CS(=O)(=O)c1ccc(OCCN2CCC3(CC2)C(=O)Nc2c(C#N)cc(Cl)cc23)cc1` [Compound 9, 5-chloro-1′-[2-(4-methanesulfonylphenoxy)ethyl]-2-oxo-1,2-dihydrospiro[indole-3,4′-piperidine]-7-carbonitrile]: the concentration at half-maximal activity (AC50) on APOL1 G2 turned out to be 1310 nM. Further, the EC50 in assay [1] (setting [2]) was around 11500 nM.

For `CN1CCc2cc(OCCN3CCC4(CC3)C(=O)Nc3ccc(C#N)cc34)ccc2S1(=O)=O` [Compound 154, 1′-{2-[(2-methyl-1,1-dioxo-3,4-dihydro-2H-1λ^6,2-benzothiazin-6-yl)oxy]ethyl}-2-oxo-1,2-dihydrospiro[indole-3,4′-piperidine]-5-carbonitrile], the AC50 on APOL1 G2 stood at 869 nM. The EC50 in assay [1] (setting [2]) was 252 nM.

For the molecule `CC(C)N1C(=O)Cc2cc(OCCN3CCC4(CC3)C(=O)Nc3ccc(C#N)cc34)ccc21` [Compound 144, 2-oxo-1′-(2-{[2-oxo-1-(propan-2-yl)-2,3-dihydro-1H-indol-5-yl]oxy}ethyl)-1,2-dihydrospiro[indole-3,4′-piperidine]-5-carbonitrile], the concentration at half-maximal activity (AC50) on APOL1 G2 worked out at 708 nM. In assay [1] (setting [2]), the EC50 was 246 nM.

With `CS(=O)(=O)C1(c2ccc(OCCN3CCC4(CC3)C(=O)N(CC(F)(F)F)c3ccc(C#N)cc34)cc2)COC1` [Compound 184, 1′-{2-[4-(3-methanesulfonyloxetan-3-yl)phenoxy]ethyl}-2-oxo-1-(2,2,2-trifluoroethyl)-1,2-dihydrospiro[indole-3,4′-piperidine]-5-carbonitrile], on APOL1 G2, the AC50 worked out at 1280 nM. Besides, the EC50 in assay [1] (setting [2]) is around 2500 nM.

In the case of `CC(c1ccc(OCCN2CCC3(CC2)C(=O)Nc2ccc(C#N)cc23)cc1)S(C)(=O)=O` (single isomer, unassigned) [Compound 135, (R) or (S)-1′-{2-[4-(1-methanesulfonylethyl)phenoxy]ethyl}-2-oxo-1,2-dihydrospiro[indole-3,4′-piperidine]-5-carbonitrile], at APOL1 G2, the AC50 came to 763 nM. The EC50 in assay [1] (setting [3]) was 1140 nM.

Consider `C[C@@H](CN1CCC2(CC1)C(=O)Nc1ccccc12)Oc1ccc(S(C)(=O)=O)cc1` (single isomer, unassigned) [Compound 13], for which, on APOL1 G2, the AC50 was below 587 nM. The EC50 in assay [1] (setting [2]) is above 30000 nM.

With `Cc1cc(OCCN2CCC3(CC2)C(=O)Nc2ccc(Cl)cc23)ccc1S(C)(=O)=O` [Compound 110, 5-chloro-1′-[2-(4-methanesulfonyl-3-methylphenoxy)ethyl]-1,2-dihydrospiro[indole-3,4′-piperidin]-2-one], the AC50 at APOL1 G2 came to 772 nM. The EC50 in assay [1] (setting [2]) is 100 nM.

Turning to `O=C1CCC2c3ccc(OCCN4CCC5(CC4)C(=O)Nc4ccc(Cl)cc45)cc3CCN12` (single isomer, unassigned) [Compound 123, (R) or (S)-5-chloro-1′-[2-({3-oxo-1H,2H,3H,5H,6H,10bH-pyrrolo[2,1-a]isoquinolin-8-yl}oxy)ethyl]-1,2-dihydrospiro[indole-3,4′-piperidin]-2-one], at APOL1 G2, the AC50 was 796 nM. In addition, in assay [1] (setting [3]), the EC50 was 232 nM.
